From ChEMBL document CHEMBL5649169 (ChemMedChem, 2018)

Legend:
[1] = molecular target: ATP synthase F(1) complex subunit gamma, mitochondrial (Homo sapiens) (UniProt P36542); note: assay method not described here
[2] = molecular target: NADH-ubiquinone oxidoreductase 75 kDa subunit, mitochondrial (Homo sapiens) (UniProt P28331); note: assay method not described here
[3] = molecular target: Monocarboxylate transporter 4 (Homo sapiens) (UniProt O15427); note: assay method not described here
[4] = molecular target: Titin (Homo sapiens) (UniProt Q8WZ42); note: assay method not described here
[5] = molecular target: Tyrosine--tRNA ligase, cytoplasmic (Homo sapiens) (UniProt P54577); note: assay method not described here
[6] = molecular target: Aldehyde dehydrogenase X, mitochondrial (Homo sapiens) (UniProt P30837); note: assay method not described here
[7] = molecular target: Small ribosomal subunit protein uS14 (Homo sapiens) (UniProt P62273); note: assay method not described here
[8] = molecular target: Proteasome activator complex subunit 1 (Homo sapiens) (UniProt Q06323); note: assay method not described here
[9] = molecular target: Proliferation-associated protein 2G4 (Homo sapiens) (UniProt Q9UQ80); note: assay method not described here
[10] = molecular target: Serine/threonine-protein kinase 10 (Homo sapiens) (UniProt O94804); note: assay method not described here
[11] = molecular target: Coatomer subunit gamma-1 (Homo sapiens) (UniProt Q9Y678); note: assay method not described here
[12] = molecular target: Leucine-rich repeat-containing protein 47 (Homo sapiens) (UniProt Q8N1G4); note: assay method not described here
[13] = molecular target: Cofilin-1 (Homo sapiens) (UniProt P23528); note: assay method not described here
[14] = molecular target: Tyrosine-protein kinase SYK (Homo sapiens) (UniProt P43405); note: assay method not described here
[15] = molecular target: Large ribosomal subunit protein bL12m (Homo sapiens) (UniProt P52815); note: assay method not described here
[16] = molecular target: Growth factor receptor-bound protein 2 (Homo sapiens) (UniProt P62993); note: assay method not described here
[17] = molecular target: Stomatin-like protein 2, mitochondrial (Homo sapiens) (UniProt Q9UJZ1); note: assay method not described here
[18] = molecular target: Small ribosomal subunit protein uS15 (Homo sapiens) (UniProt P62277); note: assay method not described here
[19] = molecular target: Mitochondrial import inner membrane translocase subunit TIM50 (Homo sapiens) (UniProt Q3ZCQ8); note: assay method not described here
[20] = molecular target: Neurosecretory protein VGF (Homo sapiens) (UniProt O15240); note: assay method not described here
[21] = molecular target: TRAF2 and NCK-interacting protein kinase (Homo sapiens) (UniProt Q9UKE5); note: assay method not described here
[22] = molecular target: ATP synthase F(0) complex subunit e, mitochondrial (Homo sapiens) (UniProt P56385); note: assay method not described here
[23] = molecular target: Far upstream element-binding protein 2 (Homo sapiens) (UniProt Q92945); note: assay method not described here
[24] = molecular target: GPI-anchor transamidase component GPAA1 (Homo sapiens) (UniProt O43292); note: assay method not described here
[25] = molecular target: Serine/threonine-protein kinase NLK (Homo sapiens) (UniProt Q9UBE8); note: assay method not described here
[26] = molecular target: Hematopoietic lineage cell-specific protein (Homo sapiens) (UniProt P14317); note: assay method not described here
[27] = molecular target: 28S rRNA (cytosine(4447)-C(5))-methyltransferase (Homo sapiens) (UniProt P46087); note: assay method not described here
[28] = molecular target: Focal adhesion kinase 1 (Homo sapiens) (UniProt Q05397); note: assay method not described here
[29] = molecular target: Ephrin type-A receptor 5 (Homo sapiens, UniProt P54756); assay: Inhibition of Nano Luc-fused full length C-terminal EPHA5 (unknown origin) expressed in HEK293T cells using NanoGlo as substrate incubated for 2 hrs in presence of tracer by NanoBRET assay; type: cell-based
[30] = molecular target: Tryptophan--tRNA ligase, cytoplasmic (Homo sapiens) (UniProt P23381); note: assay method not described here
[31] = molecular target: Cyclin-T2 (Homo sapiens) (UniProt O60583); note: assay method not described here
[32] = molecular target: Serine/threonine-protein kinase D2 (Homo sapiens) (UniProt Q9BZL6); note: assay method not described here
[33] = molecular target: Testis-expressed protein 264 (Homo sapiens) (UniProt Q9Y6I9); note: assay method not described here
[34] = molecular target: Ras association domain-containing protein 2 (Homo sapiens) (UniProt P50749); note: assay method not described here
[35] = molecular target: Acidic leucine-rich nuclear phosphoprotein 32 family member B (Homo sapiens) (UniProt Q92688); note: assay method not described here
[36] = molecular target: Uncharacterized protein FLJ45252 (Homo sapiens) (UniProt Q6ZSR9); note: assay method not described here
[37] = molecular target: 2-oxoglutarate dehydrogenase complex component E1 (Homo sapiens) (UniProt Q02218); note: assay method not described here
[38] = molecular target: Succinate--CoA ligase [ADP/GDP-forming] subunit alpha, mitochondrial (Homo sapiens) (UniProt P53597); note: assay method not described here
[39] = molecular target: Large ribosomal subunit protein uL3 (Homo sapiens) (UniProt P39023); note: assay method not described here
[40] = molecular target: Splicing factor U2AF 35 kDa subunit (Homo sapiens) (UniProt Q01081); note: assay method not described here
[41] = species on record: Homo sapiens; note: assay method not described here
[42] = molecular target: Aminoacyl tRNA synthase complex-interacting multifunctional protein 2 (Homo sapiens) (UniProt Q13155); note: assay method not described here
[43] = molecular target: Dual specificity mitogen-activated protein kinase kinase 3 (Homo sapiens) (UniProt P46734); note: assay method not described here
[44] = molecular target: Non-selective voltage-gated ion channel VDAC1 (Homo sapiens) (UniProt P21796); note: assay method not described here
[45] = molecular target: Peptidyl-prolyl cis-trans isomerase A (Homo sapiens) (UniProt P62937); note: assay method not described here

Succinate--CoA ligase [ADP/GDP-forming] subunit alpha, mitochondrial (Homo sapiens), sequence (P53597 whole entry): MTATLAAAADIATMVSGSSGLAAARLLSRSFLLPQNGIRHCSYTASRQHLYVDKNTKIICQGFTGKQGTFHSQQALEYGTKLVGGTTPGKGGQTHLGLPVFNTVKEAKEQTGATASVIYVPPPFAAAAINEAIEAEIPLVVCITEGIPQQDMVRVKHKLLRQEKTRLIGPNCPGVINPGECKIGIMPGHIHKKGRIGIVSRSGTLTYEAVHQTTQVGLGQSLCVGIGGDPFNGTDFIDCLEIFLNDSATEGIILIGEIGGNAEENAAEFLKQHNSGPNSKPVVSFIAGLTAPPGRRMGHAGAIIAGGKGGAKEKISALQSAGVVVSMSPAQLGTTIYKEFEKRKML
Splicing factor U2AF 35 kDa subunit (Homo sapiens), sequence (Q01081 whole entry): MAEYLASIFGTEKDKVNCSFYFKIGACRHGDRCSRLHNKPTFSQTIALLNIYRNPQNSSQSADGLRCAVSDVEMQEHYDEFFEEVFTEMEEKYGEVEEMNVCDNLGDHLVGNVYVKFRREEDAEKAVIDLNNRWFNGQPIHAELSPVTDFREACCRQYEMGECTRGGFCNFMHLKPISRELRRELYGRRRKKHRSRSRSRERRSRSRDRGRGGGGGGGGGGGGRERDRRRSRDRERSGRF
Tryptophan--tRNA ligase, cytoplasmic (Homo sapiens), sequence (P23381 whole entry): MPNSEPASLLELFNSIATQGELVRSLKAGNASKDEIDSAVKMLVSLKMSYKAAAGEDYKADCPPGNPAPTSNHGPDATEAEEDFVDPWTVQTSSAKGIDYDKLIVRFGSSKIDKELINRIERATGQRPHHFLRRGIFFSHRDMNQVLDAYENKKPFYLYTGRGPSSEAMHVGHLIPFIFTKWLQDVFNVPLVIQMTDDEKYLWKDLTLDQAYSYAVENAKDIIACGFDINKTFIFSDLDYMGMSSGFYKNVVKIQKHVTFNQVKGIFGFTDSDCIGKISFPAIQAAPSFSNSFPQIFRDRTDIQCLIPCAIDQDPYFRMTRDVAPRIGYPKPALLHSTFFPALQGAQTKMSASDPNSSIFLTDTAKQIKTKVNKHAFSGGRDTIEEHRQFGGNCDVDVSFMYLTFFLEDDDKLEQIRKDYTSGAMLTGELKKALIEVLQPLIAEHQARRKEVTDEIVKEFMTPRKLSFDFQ
Focal adhesion kinase 1 (Homo sapiens), sequence (Q05397 2-1052 limits assumed): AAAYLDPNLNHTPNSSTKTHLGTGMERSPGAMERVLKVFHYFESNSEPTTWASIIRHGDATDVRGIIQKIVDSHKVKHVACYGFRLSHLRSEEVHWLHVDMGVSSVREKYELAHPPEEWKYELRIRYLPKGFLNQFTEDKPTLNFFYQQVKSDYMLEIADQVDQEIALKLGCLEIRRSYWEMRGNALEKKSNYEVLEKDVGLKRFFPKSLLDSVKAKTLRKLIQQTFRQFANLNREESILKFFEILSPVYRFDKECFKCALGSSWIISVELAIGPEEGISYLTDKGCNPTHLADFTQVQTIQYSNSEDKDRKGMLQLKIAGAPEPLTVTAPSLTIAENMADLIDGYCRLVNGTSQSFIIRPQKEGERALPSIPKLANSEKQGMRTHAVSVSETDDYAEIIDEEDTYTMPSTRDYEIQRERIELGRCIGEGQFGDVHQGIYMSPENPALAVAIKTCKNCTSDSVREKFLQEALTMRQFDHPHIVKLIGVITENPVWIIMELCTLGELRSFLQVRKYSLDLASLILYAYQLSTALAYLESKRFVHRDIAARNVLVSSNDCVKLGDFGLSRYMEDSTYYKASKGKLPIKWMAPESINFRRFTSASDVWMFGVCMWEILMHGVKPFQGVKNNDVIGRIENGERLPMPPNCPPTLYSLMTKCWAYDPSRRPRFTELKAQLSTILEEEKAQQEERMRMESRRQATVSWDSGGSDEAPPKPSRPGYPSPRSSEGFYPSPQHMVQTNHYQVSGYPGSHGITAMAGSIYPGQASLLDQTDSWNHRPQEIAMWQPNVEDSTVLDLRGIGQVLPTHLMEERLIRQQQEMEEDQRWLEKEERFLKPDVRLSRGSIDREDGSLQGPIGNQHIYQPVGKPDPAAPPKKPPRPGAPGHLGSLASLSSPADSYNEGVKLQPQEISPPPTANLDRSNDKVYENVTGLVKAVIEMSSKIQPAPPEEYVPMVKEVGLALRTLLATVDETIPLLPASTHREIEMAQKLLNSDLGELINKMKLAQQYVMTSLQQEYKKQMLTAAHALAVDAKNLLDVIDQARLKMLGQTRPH
Cofilin-1 (Homo sapiens), sequence (P23528 whole entry): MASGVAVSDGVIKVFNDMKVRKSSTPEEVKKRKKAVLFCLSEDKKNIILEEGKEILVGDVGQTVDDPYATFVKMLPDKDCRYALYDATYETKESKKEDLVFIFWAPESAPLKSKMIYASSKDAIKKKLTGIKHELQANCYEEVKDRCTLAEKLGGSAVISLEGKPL
Leucine-rich repeat-containing protein 47 (Homo sapiens), sequence (Q8N1G4 whole entry): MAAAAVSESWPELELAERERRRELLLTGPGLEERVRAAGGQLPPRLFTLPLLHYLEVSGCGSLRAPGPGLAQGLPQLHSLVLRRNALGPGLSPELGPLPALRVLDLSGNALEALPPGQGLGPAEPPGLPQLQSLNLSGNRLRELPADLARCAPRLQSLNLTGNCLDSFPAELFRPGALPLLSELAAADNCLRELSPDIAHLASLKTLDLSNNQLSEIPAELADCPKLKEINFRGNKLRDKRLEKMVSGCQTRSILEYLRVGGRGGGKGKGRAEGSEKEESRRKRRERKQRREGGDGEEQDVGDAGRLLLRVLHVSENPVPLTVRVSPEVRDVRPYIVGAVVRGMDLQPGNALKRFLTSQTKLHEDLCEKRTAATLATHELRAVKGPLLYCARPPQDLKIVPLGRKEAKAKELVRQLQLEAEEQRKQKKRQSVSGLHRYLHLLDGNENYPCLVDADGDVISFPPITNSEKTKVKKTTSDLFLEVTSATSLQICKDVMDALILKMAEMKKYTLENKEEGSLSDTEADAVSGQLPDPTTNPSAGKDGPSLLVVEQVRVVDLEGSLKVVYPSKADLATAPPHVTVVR
Dual specificity mitogen-activated protein kinase kinase 3 (Homo sapiens), sequence (P46734 whole entry): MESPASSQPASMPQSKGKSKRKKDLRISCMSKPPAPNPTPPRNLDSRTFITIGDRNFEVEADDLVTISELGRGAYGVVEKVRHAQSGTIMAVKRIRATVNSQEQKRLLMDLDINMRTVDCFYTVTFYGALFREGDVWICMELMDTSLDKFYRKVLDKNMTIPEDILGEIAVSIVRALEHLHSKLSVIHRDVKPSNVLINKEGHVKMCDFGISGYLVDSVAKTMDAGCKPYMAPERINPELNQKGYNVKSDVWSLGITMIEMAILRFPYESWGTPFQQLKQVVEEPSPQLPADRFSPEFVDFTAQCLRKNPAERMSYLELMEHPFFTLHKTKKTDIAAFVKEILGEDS
Ras association domain-containing protein 2 (Homo sapiens), sequence (P50749 whole entry, the tested form may be a part): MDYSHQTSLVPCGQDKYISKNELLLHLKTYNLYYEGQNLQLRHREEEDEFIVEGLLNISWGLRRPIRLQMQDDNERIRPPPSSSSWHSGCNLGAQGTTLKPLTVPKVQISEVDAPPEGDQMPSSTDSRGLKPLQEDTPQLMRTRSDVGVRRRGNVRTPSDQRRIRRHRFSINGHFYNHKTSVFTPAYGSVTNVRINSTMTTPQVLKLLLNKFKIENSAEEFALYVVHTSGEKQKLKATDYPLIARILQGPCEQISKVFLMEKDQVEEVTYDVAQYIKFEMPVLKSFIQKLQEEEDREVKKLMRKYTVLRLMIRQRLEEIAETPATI
Acidic leucine-rich nuclear phosphoprotein 32 family member B (Homo sapiens), sequence (Q92688 whole entry): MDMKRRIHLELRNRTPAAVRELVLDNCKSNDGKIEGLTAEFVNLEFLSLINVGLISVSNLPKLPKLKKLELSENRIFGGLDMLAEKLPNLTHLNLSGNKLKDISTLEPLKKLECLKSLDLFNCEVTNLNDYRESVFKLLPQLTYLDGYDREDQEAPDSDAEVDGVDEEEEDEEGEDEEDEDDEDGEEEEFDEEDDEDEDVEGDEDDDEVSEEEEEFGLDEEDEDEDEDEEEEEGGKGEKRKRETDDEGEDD
2-oxoglutarate dehydrogenase complex component E1 (Homo sapiens), sequence (Q02218 whole entry, one chain of several): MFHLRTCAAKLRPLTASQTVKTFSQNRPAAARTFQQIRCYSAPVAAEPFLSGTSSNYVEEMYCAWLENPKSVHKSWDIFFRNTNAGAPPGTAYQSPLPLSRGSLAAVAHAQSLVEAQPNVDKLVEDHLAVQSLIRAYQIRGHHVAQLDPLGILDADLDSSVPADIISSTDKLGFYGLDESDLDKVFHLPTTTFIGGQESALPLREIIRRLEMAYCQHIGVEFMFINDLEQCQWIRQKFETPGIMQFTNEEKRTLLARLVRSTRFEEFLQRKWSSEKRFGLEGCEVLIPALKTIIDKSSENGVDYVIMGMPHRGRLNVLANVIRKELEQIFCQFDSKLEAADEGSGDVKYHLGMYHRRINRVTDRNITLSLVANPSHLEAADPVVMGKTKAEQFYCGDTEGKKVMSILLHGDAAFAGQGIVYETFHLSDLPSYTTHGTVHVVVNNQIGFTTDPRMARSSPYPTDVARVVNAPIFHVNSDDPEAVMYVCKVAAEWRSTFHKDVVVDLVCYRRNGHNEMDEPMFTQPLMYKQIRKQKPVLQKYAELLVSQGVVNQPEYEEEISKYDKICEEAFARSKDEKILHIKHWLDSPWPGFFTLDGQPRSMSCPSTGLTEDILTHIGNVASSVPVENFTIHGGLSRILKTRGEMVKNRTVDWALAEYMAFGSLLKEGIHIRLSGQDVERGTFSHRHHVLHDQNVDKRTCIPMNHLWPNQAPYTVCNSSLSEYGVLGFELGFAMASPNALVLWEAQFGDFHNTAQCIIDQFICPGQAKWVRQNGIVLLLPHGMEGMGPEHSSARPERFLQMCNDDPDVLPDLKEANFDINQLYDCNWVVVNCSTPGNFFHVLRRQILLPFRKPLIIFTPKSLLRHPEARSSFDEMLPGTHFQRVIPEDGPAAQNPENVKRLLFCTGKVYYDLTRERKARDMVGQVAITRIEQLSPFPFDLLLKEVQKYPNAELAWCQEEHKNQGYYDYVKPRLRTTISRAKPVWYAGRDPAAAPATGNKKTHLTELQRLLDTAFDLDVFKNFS
ATP synthase F(0) complex subunit e, mitochondrial (Homo sapiens), sequence (P56385 whole entry, one chain of several): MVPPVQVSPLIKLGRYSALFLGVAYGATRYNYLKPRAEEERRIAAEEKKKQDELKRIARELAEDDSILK

## Cc1ccc(C(=O)Nc2cccc(C(F)(F)F)c2)cc1Nc1nc(-c2cccnc2)nc2c1cnn2C
[1]
  ED50: 3.13 µM
[2]
  ED50: 0.765 µM
[3]
  ED50: 4.22 µM
[4]
  ED50: 0.0522 µM
[5]
  ED50: 0.157 µM
[6]
  ED50: 0.00943 µM
[7]
  ED50: 0.108 µM
[8]
  ED50: 2570 µM
[9]
  ED50: 162 µM
[10]
  ED50: 2.82 µM
[11]
  ED50: 0.164 µM
[12]
  ED50: 0.0207 µM
[13]
  ED50: 7.3 µM
[14]
  ED50: 3.85 µM
[15]
  ED50: 7.74 µM
[16]
  ED50: 0.0534 µM
[17]
  ED50: 0.0199 µM
[18]
  ED50: 2.21 µM
[19]
  ED50: 3.59 µM
[20]
  ED50: 2.22 µM
[21]
  ED50: 23.2 µM
[22]
  ED50: 20 µM
[23]
  ED50: 1.03 µM
[24]
  ED50: 56.5 µM
[25]
  ED50: 0.00185 µM
[26]
  ED50: 0.0299 µM
[27]
  ED50: 0.000204 µM
[28]
  ED50: 10.4 µM
[29]
  IC50: 0.0028 µM
[30]
  ED50: 0.0163 µM
[31]
  ED50: 12.8 µM
[32]
  ED50: 0.49 µM
[33]
  ED50: 5.04 µM
[34]
  ED50: 0.0164 µM
[35]
  ED50: 5.15 µM
[36]
  ED50: 0.248 µM
[37]
  ED50: 0.0247 µM
[38]
  ED50: 0.0563 µM
[39]
  ED50: 2.64 µM
[40]
  ED50: 0.000531 µM
[41]
  ED50: 4.25 µM
[42]
  ED50: 0.00534 µM
[43]
  ED50: 0.00369 µM
[44]
  ED50: 0.00899 µM
[45]
  ED50: 0.396 µM

## Cc1ccc(C(=O)Nc2cccc(C(F)(F)F)c2)cc1Nc1nc(-c2cccnc2)nc2nn(C)cc12
[1]
  ED50: 2.43 µM
[2]
  ED50: 0.959 µM
[3]
  ED50: 2.74 µM
[4]
  ED50: 0.0126 µM
[5]
  ED50: 0.0572 µM
[6]
  ED50: 0.0072 µM
[7]
  ED50: 0.00933 µM
[8]
  ED50: 2.59 µM
[9]
  ED50: 0.365 µM
[10]
  ED50: 0.0351 µM
[11]
  ED50: 2.75 µM
[12]
  ED50: 0.00913 µM
[13]
  ED50: 0.0624 µM
[14]
  ED50: 0.216 µM
[15]
  ED50: 0.117 µM
[16]
  ED50: 0.821 µM
[17]
  ED50: 0.0386 µM
[18]
  ED50: 0.00657 µM
[19]
  ED50: 1.85 µM
[20]
  ED50: 2.66 µM
[21]
  ED50: 0.0751 µM
[22]
  ED50: 0.531 µM
[23]
  ED50: 4.03 µM
[24]
  ED50: 0.841 µM
[25]
  ED50: 0.0242 µM
[26]
  ED50: 3210 µM
[27]
  ED50: 0.366 µM
[28]
  ED50: 0.0476 µM
[29]
  IC50: 0.208 µM
[30]
  ED50: 29.9 µM
[31]
  ED50: 0.0632 µM
[32]
  ED50: 0.0468 µM
[33]
  ED50: 0.0539 µM
[34]
  ED50: 3.43 µM
[35]
  ED50: 10.1 µM
[36]
  ED50: 0.000276 µM
[37]
  ED50: 12.5 µM
[38]
  ED50: 0.877 µM
[39]
  ED50: 10.4 µM
[40]
  ED50: 0.137 µM
[41]
  ED50: 0.0418 µM
[42]
  ED50: 0.0495 µM
[43]
  ED50: 2770 µM
[44]
  ED50: 0.0559 µM
[45]
  ED50: 2.04 µM
